Assays:
HT29 = assay: cells; settings: Homo sapiens, HT-29, 72 h
Experimental: (§1) The in vitro efficacy of ABD and rhArg fusion protein was tested on human colon cancer cell lines. Human colon cancer cell lines (HCT116, LOVO and HT29) were seeded in 96-well plate at densities of 5×10^3 cells/well. After 1 day of incubation, the culture medium was replaced with medium containing different concentrations (2, 0.4, 0.08, 0.016 and 0.0032 U/ml) of N-ABD094-rhArg (SEQ ID NO: 50). MTT assay was conducted at Day 3 [3 days after N-ABD094-rhArg (SEQ ID NO: 50) treatment] to determine the IC50 values. The culture medium was replaced with MTT solution (1 mg/ml) (Invitrogen) and incubated at 37° C. for 4 h. After incubation, MTT solution was replaced with dimethyl sulfoxide (DMSO), and the absorbance at 570 nm was measured with a reference of 650 nm. The cell viability was determined by dividing the absorbance of N-ABD094-rhArg-treated cells by the average absorbance of untreated cells. […] Three independent sets of experiments (n=3) were performed for each cell line.
(§2) MTT assay was conducted at Day 3. Three independent sets of experiments (n=3) were performed for each cell line.
(§3) For drug-combination assay, a non-constant ratio analysis was performed (Hastak et al., 2010, Cancer Res. 70(20):7970-7980). Colon cancer cells were seeded and after 1 day of incubation, the culture medium was replaced with medium containing different concentrations of N-ABD094-rhArg (SEQ ID NO: 50) (2, 0.4, 0.08, 0.016, 0.0032 U/ml) combined with fixed amount of CQ according to its IC50. MTT assay was conducted at Day 3. The combination index (CI) of combined N-ABD094-rhArg (SEQ ID NO: 50) and CQ treatment was analyzed by software CalcuSyn version 2.1. Three independent sets of experiments (n=3) were performed for each cell line.

HCT116 [1] = assay: cells; settings: Homo sapiens, HCT-116, 72 h
Experimental: as §1, §2, §3

LOVO = assay: cells; settings: Homo sapiens, LoVo, 72 h
Experimental: as §1, §2, §3

[2] = tested on: MDA-MB-231 breast cancer cells; assay: cells; format: cell-based, human; settings: Homo sapiens
Experimental: (§4) Breast cancer cell lines (e.g. human MCF-7 and MDA-MB-231 cells) were used in these studies. Cancer cells (5×10^3 cells) were seeded in 96-well plates (TPP) with […] complete medium. The plates were incubated in incubator overnight and the cells were allowed to adhere to the plates. […] Each dosage was triplicated in 3 wells to obtain the average change of cell viability. […] The plates were put back into the incubator and further incubated for 4 h. To dissolve the insoluble compound, formazan, formed by MTT, 100 μl of 10% SDS in 0.01 M HCl was added. The plates were incubated at 37° C. overnight. The color change was measured by spectrophotometer at 570 nm. Control set up (without any drug) was used as base to calculate percentage of cell viability which was used to plot the dose response curve by the software Prism 6.0 (GraphPad) to find the IC50 values. […] CalcuSyn software (Biosoft) was used for calculating the CI values.

MCF-7 cancer cells = assay: cells; format: cell-based, human; settings: Homo sapiens
Experimental: as §4

[3] = biological target: human serum albumin (HSA) (human, UniProt P02768 25-609); assay: non-denaturing PAGE; 30 pmol HSA titrated with 7.5-120 pmol fusion protein
HCT116 [4] = assay: MTT cytotoxicity of ADI, BCA, ADC; format: cell-based, human; settings: HCT116, 72 h
Experimental: (§5) For cell proliferation assay, cancer cells (5×10^3) in a volume of 100 μL of growth medium were seeded to each well of a 96-well plate and incubated for 24 h. The culture medium was replenished by arginine free medium (AFM) supplemented with different concentrations of arginine, fresh medium containing various concentrations of different arginine depleting enzymes as well as using these enzymes in combination with citrulline. The plate was incubated for an additional 1-3 days at 37° C. in an incubator containing a humidified atmosphere of 95% air and 5% CO2.
(§6) Quantitative cell proliferation assays were performed using MTT (3-[4,5-dimethylthiazol-2-yl]-2,5-diphenyl tetrazolium bromide) assays as widely described elsewhere. The amount of arginine depleting enzyme required to kill 50% of the cells in a culture was defined as IC50.
(§7) The cytotoxicities of arginine deiminase (ADI), bacterial arginase (BCA) and arginine decarboxylase (ADC) were determined in a comparative study in five tumor cell lines: A375, HeLa, BxPC-3, PANC-1, and HCT116.
(§8) Table 6. IC50 and maximum cytotoxicity of ADI, BCA and ADC on five human cancer cell lines. Cells were treated for 72 h before MTT analysis. Data are the mean of three experiments performed in triplicate. IC50 value is defined as the amount of enzyme needed to achieve 50% inhibition of cell viability. Maximum cytotoxicity is expressed as the maximum percentage of nonviable cells achieved by each enzyme. ADI-resistant cells are defined as cells of which more than 50% survive under the maximum dose of ADI tested.

HeLa = assay: MTT cytotoxicity of ADI, BCA, ADC; format: cell-based, human; settings: 72 h
Experimental: as §5, §6, §7, §8

A375 = assay: MTT cytotoxicity of ADI, BCA, ADC; format: cell-based, human; settings: A375, 72 h
Experimental: as §5, §6, §7, §8

BxPC-3 = assay: MTT cytotoxicity of ADI, BCA, ADC; format: cell-based, human; settings: BxPC-3, 72 h
Experimental: as §5, §6, §7, §8

PANC-1 = assay: MTT cytotoxicity of ADI, BCA, ADC; format: cell-based, human; settings: PANC-1, 72 h
Experimental: as §5, §6, §7, §8

[5] = biological target: human serum albumin (HSA), P02768
[6] = MDA-MB-231, 72 h, read-out: Mean of % Cell Viability
[7] = MCF7, read-out: Mean of % Cell Viability

CCN(CC)CCCC(C)Nc1ccnc2cc(Cl)ccc12 (stereo not drawn) [CQ, chloroquine]
IC50 (HT29): 71 µM
IC50 (HCT116 [1]): > 100 µM
IC50 (LOVO): 15 µM
IC50 ([2]; MDA-MB-231): 73.4 µM
viability at 0.16 µM [2, 6]: 99%
viability at 0.8 µM [2, 6]: 98.1%
viability at 4 µM [2, 6]: 82.2%
viability at 20 µM [2, 6]: 75.2%
viability at 100 µM [2, 6]: 43.2%
IC50 (MCF-7 cancer cells; MCF7): 67.2 µM
viability at 0.16 µM (MCF-7 cancer cells; [7]): 96.3%
viability at 0.8 µM (MCF-7 cancer cells; [7]): 85.9%
viability at 4 µM (MCF-7 cancer cells; [7]): 83.3%
viability at 20 µM (MCF-7 cancer cells; [7]): 72.4%
viability at 100 µM (MCF-7 cancer cells; [7]): 40.7%

B1: N-ABD-rhArg fusion protein (SEQ ID NO: 49) (enzyme)
chain: MHHHHHHDEAVDANSLAEAKVLANRELDKYGVSDYYKNLINNAKTVEGVKALIDEILAALPSGSNNNNNNGSGGMSAKSRTIGIIGAPFSKGQPRGGVEEGPTVLRKAGLLEKLKEQECDVKDYGDLPFADIPNDSPFQIVKNPRSVGKASEQLAGKVAEVKKNGRISLVLGGDHSLAIGSISGHARVHPDLGVIWVDAHTDINTPLTTTSGNLHGQPVSFLLKELKGKIPDVPGFSWVTPCISAKDIVYIGLRDVDPGEHYILKTLGIKYFSMTEVDRLGIGKVMEETLSYLLGRKKRPIHLSFDVDGLDPSFTPATGTPVVGGLTYREGLYITEEIYKTGLLSGLDIMEVNPSLGKTPEEVTRTVNTAVAITLACFGLAREGNHKPIDYLNPPK
notes: It was expressed in E. coli ER2566 and purified on a Ni-IDA column
binding result [3]: binds

B2: BCA: bacterial arginase (Bacillus caldovelox arginase) (protein, UniProt P53608 1-299, looked up)
Arginase: MKPISIIGVPMDLGQTRRGVDMGPSAMRYAGVIERLERLHYDIEDLGDIPIGKAERLHEQGDSRLRNLKAVAEANEKLAAAVDQVVQRGRFPLVLGGDHSIAIGTLAGVAKHYERLGVIWYDAHGDVNTAETSPSGNIHGMPLAASLGFGHPALTQIGGYSPKIKPEHVVLIGVRSLDEGEKKFIREKGIKIYTMHEVDRLGMTRVMEETIAYLKERTDGVHLSLDLDGLDPSDAPGVGTPVIGGLTYRESHLAMEMLAEAQIITSAEFVEVNPILDERNKTASVAVALMGSLFGEKLM
IC50 (HCT116 [4]): 0.22 µg/mL
Maximum cytotoxicity (HCT116 [4]): 81.05%
IC50 (HeLa): 1.25 µg/mL
Maximum cytotoxicity (HeLa): 61.14%
IC50 (A375): 0.12 µg/mL
Maximum cytotoxicity (A375): 86.92%
IC50 (BxPC-3): 0.44 µg/mL
Maximum cytotoxicity (BxPC-3): 84.82%
IC50 (PANC-1): 1.81 µg/mL
Maximum cytotoxicity (PANC-1): 63.01%

B3: BCA-6xHis-ABD fusion protein BHA (SEQ ID NO: 75) (protein)
chain: MKPISIIGVPMDLGQTRRGPDMGPSAMRYAGVIERLERLHYDIEDLGDIPIGKAERLHEQGDSRLRNLKAVAEANEKLAAAVDQVVQRGRFPLVLGGDHSIAIGTLAGVAKHYERLGVIWYDAHGDVNTAETSPSGNIHGMPLAASLGFGHPALTQIGGYCPKIKPEHVVLIGVRSLDEGEKKFIREKGIKIYTMHEVDRLGMTRVMEETIAYLKERTDGVHLSLDLDGLDPSDAPGVGTPVIGGLTYRESHLAMEMLAEAQIITSAEFVEVNPILDERNKTASVAVALMGSLFGEKLMHHHHHHAQHDEAVDANSLAEAKVLANRELDKYGVSDYYKNLINNAKTVEGVKALIDEILAALP
specific activity (arginine catabolic activity, DAMO assay) at BHA:HSA mole ratios 1:10, 1:5, 1:1, 5:1 and 10:1 [5]: approximately 200 U/mg

Source: US20200181597A1, “Composition and Application of Arginine-depleting Agents for Cancer, Obesity, Metabolic Disorders, and Related Complications and Comorbidities” (THE HONG KONG POLYTECHNIC UNIVERSITY, priority 2018, published 2020)
